From PubChem BioAssay (NCI)
Several values for one entry are separate records, joined by “and”; a condition that tells them apart may be missing. Equal values may be shown once.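 Five compound concentrations were applied to cells in 96-well plates for 48 hours; endpoints were derived by simple linear interpolation of the resulting dose-response curve. Abbreviation: GI50, concentration required for 50% inhibition of growth. The concentration for full growth arrest is given as TGI.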

How the values were obtained:
Assay in all cases: growth of human tumour cells (NCI), 48 h
HS 578T breast = tested on: HS 578T breast
UACC-62 melanoma = tested on: UACC-62 melanoma
TK-10 renal = tested on: TK-10 renal
M14 melanoma = tested on: M14 melanoma
SF-539 CNS = tested on: SF-539 CNS
CAKI-1 renal = tested on: CAKI-1 renal
HCC-2998 colon = tested on: HCC-2998 colon
NCI-H23 lung = tested on: NCI-H23 lung
BT-549 breast = tested on: BT-549 breast
U251 CNS = tested on: U251 CNS

Structure (SMILES)	GI50 (HS 578T breast)	TGI (HS 578T breast) [µM]	GI50 (UACC-62 melanoma) [µM]	TGI (UACC-62 melanoma) [µM]	GI50 (TK-10 renal)	TGI (TK-10 renal)	GI50 (M14 melanoma) [µM]	TGI (M14 melanoma) [µM]	GI50 (SF-539 CNS) [µM]	TGI (SF-539 CNS) [µM]	GI50 (CAKI-1 renal)	TGI (CAKI-1 renal) [µM]	GI50 (HCC-2998 colon) [µM]	TGI (HCC-2998 colon) [µM]	GI50 (NCI-H23 lung) [µM]	TGI (NCI-H23 lung) [µM]	GI50 (BT-549 breast)	TGI (BT-549 breast)	GI50 (U251 CNS) [µM]	TGI (U251 CNS) [µM]
COc1ccc(-c2nocc2-c2cc(OC)c(OC)c(OC)c2)cc1	0.216 µM	> 100	0.0489	18.9	0.93 µM	62.7 µM	0.054	5.82	0.132	20.7	0.236 µM	> 100	0.358	28	0.445	> 86.5	0.112 µM	19.5 µM	0.0793	> 81.1
C=C1C(=O)OC2/C=C(\C)C3OC3/C=C(/C(=O)OC)C(OC(C)=O)C(OC(=O)C(C)(O)C(C)OC(C)=O)C12 (stereo unspecified)		29.7		4.55		4.21 µM		8.05		5.43		16.3		14.4		11.2		2.37 µM		10.3
CN1CCCN(C(c2ccccc2)c2ccc(Br)cc2)CC1 (stereo unspecified)	2.37 µM	6.35	2.03	4.35	10.4 µM	22.7 µM	1.61	2.99	3.09	11.1	3.24 µM	13.4	4.55	16	10.3	22.1	4.89 µM	19.4 µM	3	10.3
C=C1N(C)c2ccc(Cl)cc2C1(C)C	6.34 µM	> 100	11.7	29.5	14.7 µM	69.2 µM	5.73	24.5	19.6	62.5	19.2 µM	68.5	6.25	> 100	5.47	> 100	3.35 µM	22.3 µM	3.68	57.2
O=C(Nc1ccc(Br)cc1F)c1cc(Br)ccc1O	0.467 µM	5.66	0.303	1.23	3.12 µM	12.3 µM	0.713	5.48	0.552	4.64	0.456 µM	4.11	2.87	10.8	0.396	3.62	0.403 µM	3.25 µM	0.64	13.3
COc1cc2c3c(c4c5ccccc5[nH]c4c2c(OC)c1OC)C(=O)N(CCN1CCCCC1)C3=O	1.84 µM	4.59	3.88	9.12	1.3 µM	2.72 µM	1.82	4.25	1.38	2.72	0.811 µM	2.3	1.32	3.45	1.12	2.68	4.6 µM	13.4 µM	1.12	2.49
Nc1nc2c(c3cnccc13)C(c1cccc(Cl)c1)Cc1cnccc1-2 (stereo unspecified)	0.466 µM	32.9	0.371	12	0.696 µM	13.7 µM	0.297	11	0.255	0.752	0.434 µM	15.5	1.29	12.8	0.382	3.51	0.482 µM	4.21 µM	0.336	1.08
NC[C@@](O)(c1ccc(Cl)cc1)c1ccc(-c2cn[nH]c2)cc1	0.471 µM and 0.173 µM		3.2	> 10	0.083 µM and 0.268 µM	0.875 µM and 1.54 µM	2.34	5.98	1.01	2.36	0.73 µM and 1.27 µM		> 100	> 100		> 100	0.892 µM and 1.13 µM	3.91 µM and 7.63 µM	1.49	3
CC/C=C\C/C=C\C[C@H]1C/C=C2/C(=O)C=C[C@H]2C/C=C\CCC(=O)O1	4.85 µM	> 14.3	2.09	5.47	4.72 µM	12.9 µM	4.48	> 14.3	4.44	> 14.3	3.13 µM	8.58	2.77	5.37	3.03	8.31	3.68 µM	10.1 µM	3.06	9.71
COc1ccc(/C=C/C(=O)c2ccc(Nc3ccnc4cc(Cl)ccc34)cc2)cc1	> 100 µM	> 100	62.6	> 100	> 100 µM	> 100 µM	> 100	> 100	> 100	> 100	> 100 µM	> 100	> 100	> 100	> 100	> 100	> 100 µM	> 100 µM	> 100	> 100
C[C@@]1(N2C(=O)OC[C@@H]2c2ccccc2)C(=O)N([C@H](CC(=O)N2CCC(N3CCCCC3)CC2)C(=O)NCc2cccc(C(F)(F)F)c2)[C@@H]1/C=C/c1ccccc1	2.09 µM	4.78	1.85	3.78	1.8 µM	3.76 µM	1.93	3.6	1.77	3.32	2.3 µM	6.55	1.98	3.79	4.12	16.7	3.29 µM	9.33 µM	1.83	3.43
O=C1c2cccnc2C(=O)c2c1c(C(=O)OCCN1CCOCC1)c1ccccn21	0.0243 µM	10.8	< 0.01	0.11	0.163 µM	2.72 µM	< 0.01	0.116	< 0.01	< 0.0212	< 0.0184 µM	14.6	0.252	5.4	< 0.01		0.05 µM	2.62 µM	< 0.0104	0.767
C[C@]12CC[C@H]3[C@@H](C[C@@H]4N=C(c5ccc(O)cc5)S[C@@]45C[C@H](O)CC[C@]35C)[C@@H]1CC[C@@H]2O	1.59 µM	60.1	2.43	7.64	> 100 µM	> 100 µM	2.86	29.3	0.454	3.23	4.12 µM	> 100	31.9	> 100	14	> 100	1.14 µM	19.4 µM	2.23	67.3
CC(C)[C@@H]1CC[C@@H]2[C@@H]1[C@H](OC(=O)/C=C/c1ccccc1)[C@]1(C(C)C)C[C@@H](OC(=O)CO)[C@@]2(C)O1	0.00325 µM	0.0136	4.94	9.97	6.46 µM	15.4 µM	5.83	12.1	5.25	10.2	0.133 µM	6.73	6.35	11.7	6.88	14.1	0.0375 µM	4.38 µM	5.54	10.6
Cc1ccc(S(=O)(=O)n2cc(-c3nnnn3-c3ccc(Cl)cc3)c(=O)c3ccccc32)cc1	> 100 µM	> 100	54.8	> 100	> 100 µM	> 100 µM	49.5	> 100	> 100	> 100	> 100 µM	> 100	> 100	> 100	> 100	> 100	> 100 µM	> 100 µM	88.6	> 100
C=C(CN1CCN(c2cccc(F)c2)CC1)c1ccc(C(=O)Nc2ccccc2N)cc1	2.61 µM	> 100	2.02	63.5	5.95 µM	> 100 µM	0.311	2.38	1.45	5.77	0.629 µM	7.74	2.98	11	1.77	17.3	1.33 µM	12.6 µM	1.41	43
COC(=O)c1ccc(C2SCC(=O)N2NC(=O)C(O)c2ccccc2)cc1 (stereo unspecified)	> 100 µM	> 100	> 100	> 100	> 100 µM	> 100 µM	> 100	> 100	> 100	> 100	> 100 µM	> 100	> 100	> 100	> 100	> 100	> 100 µM	> 100 µM	> 100	> 100
COc1cc2c3c(n(CCCCl)c(=O)c2cc1OC)-c1ccc(C#N)cc1C3=O	3.32 µM	21.9	6.81	22.5	13.5 µM	29.3 µM	9.24	> 100	7.18	28.2	10.6 µM	30.9	4.49	25.9	8.38	20.9	5.5 µM	23.6 µM	0.446	2.83
CC(=O)c1ccc(NCN2C(=O)c3ccccc3C2=O)cc1		> 100		> 100		> 100 µM		> 100		> 100		> 100		> 100		> 100		> 100 µM		> 100
CCCN1CCN(c2ccc3nc(-c4ccc5nc(-c6ccc(OCC)c(OCC)c6)[nH]c5c4)[nH]c3c2)CC1	1.11 µM	3.56	0.348	1.87	1.3 µM	4.13 µM	0.195	1.39	0.724	2.05	1.02 µM	3.28	0.533	1.16	0.251	0.765	1.13 µM	2.61 µM	0.398	1.55
